The text below walks through data of patent US10456400B2, “Aza-ellipticine analogs, methods of synthesis and methods of treatment” (MUSC FOUNDATION FOR RESEARCH DEVELOPMENT, priority 2014, dated 2019).

The test system of data set [1] is Human mammary cancer MCF-7 cells. Briefly: Cytotoxicity in MCF-7 cells (72 h treatment, Hoechst 33342 staining, IN Cell Analyzer imaging). Format: cell-based. The method, then: (§1) Human mammary cancer MCF-7 cells were maintained under standard conditions using Dulbecco's Modified Eagle Medium Nutrient Mixture F12 (DMEM-F12, GIBCO #12400-024) accompanied by 10% fetal calf serum (FCS, Atlanta Biologicals #S 11550). Cells were cultured to 80% confluency before being lifted with 0.05% Trypsin/EDTA (GIBCO #1404912) for 2 minutes, spun and resuspended in new media.
(§2) MCF7 cells were seeded at a density of 10,000 cells per well in 96 well plates (BD Falcon #353220). Cells were grown for 24 h, washed in phosphate-buffered saline (PBS, Life Technologies #14080-055), media was then replaced with DMEM-F12 at 5% FCS. At this time Ellipticine, including Aza-Ellipticine compounds, were added from a treatment plate (3 μL per condition) for a total volume of 150 μL (final concentrations of 0.1, 1, 3, 10 μM) and were incubated under standard conditions for an additional 72 h.
(§3) After 72 h of treatment with drugs, cells were fixed by adding 50 μL of 10% Buffered Formalin Phosphate and stained with 2 μM Hoechst 33342 (AnaSpec #83218) stock (20000×) to media for 1 h. Images were then captured with the IN Cell Analyzer 2000 (GE Healthcare UK Ltd., Buckinghamshire, UK).

The conditions of data set [2]: Ramkumar and Nagarajan, 2014; cited from earlier work.
Data set [3] is described as follows: Cytotoxicity in MCF-7 cells (72 h treatment, Hoechst 33342 staining, IN Cell Analyzer imaging). It counts as cell-based, Human. The following applies: human. As to the method: as §1, §2, §3

Where two headings read alike, the source gives them in different places.

For the compound `Cc1c2ccncc2c(C)c2c1[nH]c1ccc(O)cc12` [9-Hydroxy ellipticine, reference compound], in data set [1] (MCF-7 cells, 72 h treatment, 5% FCS, concentrations 0.1, 1, 3, 10 μM), the EC50 (commonly the concentration giving half of the maximal effect) was 900 nM. Also, the “potency compared with parent ellipticine” value in data set [2] was “forty times more potent than its parent”.
In data set [3], `c1ccc2c(c1)[nH]c1nc3cnccc3cc12` [Example 2, 10H-indolo[2,3-b][1,7]naphthyridine] came in with an EC50 at 72 h of 6000 nM.
With `COc1ccc2[nH]c3nc4cccnc4c(C)c3c2c1` [Example 7, 9-methoxy-11-methyl-6H-indolo[2,3-b][1,5]naphthyridine], in data set [3], the 50% effective concentration (EC50) at 72 h was 14000 nM.
As to `CCCn1c2ccc(OC)cc2c2cc3ncccc3nc21` [Example 8, 9-methoxy-6-propyl-6H-indolo[2,3-b][1,5]naphthyridine], in data set [3], a half-maximal effect (EC50 at 72 h) was put at 13300 nM.
The same measure, in the same setting: the result for `COc1ccc2[nH]c3nc4cccnc4cc3c2c1` [Example 12, 9-methoxy-6H-indolo[2,3-b][1,5]naphthyridine] reads 800 nM.
Same read-out and setting: next, `COc1ccc2[nH]c3nc4cnccc4cc3c2c1` [Example 13, 7-methoxy-10H-indolo[2,3-b][1,7]naphthyridine]: 17000 nM.
Same read-out and setting: the result for `Oc1ccc2[nH]c3nc4cccnc4cc3c2c1` [Example 14, 6H-indolo[2,3-b][1,5]naphthyridin-9-ol] reads 5000 nM.
As to `COc1cccc2c1[nH]c1nc3cccnc3cc12` [Example 15, 7-methoxy-6H-indolo[2,3-b][1,5]naphthyridine], the “Cytotoxicity, EC50 (result in words)” value in data set [1] is listed as “No effect”.
Turning to `Cc1ccc2[nH]c3nc4cccnc4cc3c2c1` [Example 17, 9-methyl-6H-indolo[2,3-b][1,5]naphthyridine], the EC50 at 72 h in data set [3] came to 900 nM.
`CCCCc1c2ncccc2nc2[nH]c3ccc(OC)cc3c12` [Example 18, 11-butyl-9-methoxy-6H-indolo[2,3-b][1,5]naphthyridine]: the EC50 at 72 h in data set [3] came to 1000 nM.
In data set [3], `CC(=O)Oc1ccc2c(c1)c1cc3ncccc3nc1n2C(C)=O` [Example 19, 6-acetyl-6H-indolo[2,3-b][1,5]naphthyridin-9-yl acetate] displayed an EC50 at 72 h of 1000 nM.
With `Cc1c2ccncc2c(C)c2c1[nH]c1ccccc12` [ellipticine], the EC50 at 72 h in data set [3] (MCF-7 cells, 72 h treatment, 5% FCS, concentrations 0.1, 1, 3, 10 μM, read-out: Cytotoxicity, EC50) was 1000 nM.
